Reference: ChEMBL document CHEMBL6096630, “Enhancing therapeutic efficacy in homologous recombination-proficient pancreatic cancer via the combination of PARP1-PROTAC and a BRD4 inhibitor” (Bioorg Med Chem, 2024)
Calls of active or inactive are those of the source. No cut-off for these calls is given here.

Tests used:
PANC-1 [1] = assay: Anti-invasive activity in human PANC-1 cells at 2 uM in presence of JQ1 incubated for 48 hrs by Matrigel assay relative to control; type: functional
PANC-1 [2] = assay: Induction of apoptosis in human PANC-1 cells at 2 uM incubated for 48 hrs in presence of JQ1 by Annexin V-FITC/PI staining based flow cytometry relative to compound treatment alone; type: functional
PANC-1 [3] = assay: Anti-migration activity in human PANC-1 cells at 2 uM in presence of JQ1 incubated for 24 hrs by transwell assay relative to control; type: functional
PANC-1 [4] = assay: Induction of apoptosis in human PANC-1 cells assessed as increase in Bax level at 2 uM incubated for 48 hrs in presence of JQ1 by Western blot analysis; type: functional, cell-based
PANC-1 [5] = assay: Induction of cell cycle arrest in human PANC-1 cells assessed as accumulation at G2/M phase at 2 uM incubated for 24 hrs in presence of JQ1 by PI staining based flow cytometry relative to control; type: functional
PANC-1 [6] = assay: Induction of cell cycle arrest in human PANC-1 cells assessed as decrease in CDK4 level at 2 uM incubated for 24 hrs in presence of JQ1 by […]; type: functional
PANC-1 [7] = assay: Synergistic antiproliferative activity against human PANC-1 cells expressing wild-type BRCA assessed as inhibition of cell viability incubated for 5 days in presence of JQ1 by CCK8 assay; type: functional, cell-based; settings: time 5.0 day
PANC-1 [8] = assay: Induction of apoptosis in human PANC-1 cells assessed as decrease in Bcl-2 level at 2 uM incubated for 48 hrs in presence of JQ1 by Western blot analysis; type: functional, cell-based
PANC-1 [9] = assay: Anti-invasive activity in human PANC-1 cells assessed as increase in invasion inhibition at 2 uM in presence of JQ1 incubated for 48 hrs by Matrigel assay relative to combination of OL/JQ1; type: functional; set-up: scale not given: the % may be the effect or the level left
[10] = Toxicity in BALB/c mouse xenografted with human PANC-1 cells assessed as animal morbidity at 20 mg/kg, ip for 4 weeks administered for 5 days consecutively and 2 days without treatment on every week; type: organism-based; settings: in vivo, 672 h
[11] = Toxicity in BALB/c mouse xenografted with human PANC-1 cells assessed as pathological changes in kidney at 20 mg/kg, ip for 4 weeks administered for 5 days consecutively and 2 days without treatment on every week in presence of OL by H and E staining based analysis; type: organism-based; settings: in vivo, 672 h
PANC-1 [12] = assay: Induction of cell cycle arrest in human PANC-1 cells assessed as accumulation at G1 phase at 0.5 uM incubated for 24 hrs by PI staining based flow cytometry (reference value: 51.70 %); type: functional
PANC-1 [13] = assay: Inhibition of colony formation in human PANC-1 cells at 1 uM incubated for 14 days by crystal violet staining based analysis; type: functional, cell-based; settings: time 14.0 day
PANC-1 [14] = assay: Antitumor activity against human PANC-1 cells xenografted in BALB/c mouse assessed as inhibition of tumor weight at 20 mg/kg, ip for 4 weeks administered for 5 days consecutively and 2 days without treatment on every week in presence of OL; type: functional, organism-based
PANC-1 [15] = assay: Antitumor activity against human PANC-1 cells xenografted in BALB/c mouse assessed as reduction in tumor growth at 20 mg/kg, ip for 4 weeks administered for 5 days consecutively and 2 days without treatment on every week; type: functional, organism-based
PANC-1 [16] = assay: Induction of cell cycle arrest in human PANC-1 cells assessed as accumulation at S phase at 0.25 uM incubated for 24 hrs by PI staining based flow cytometry (reference value: 38.94 %); type: functional
PANC-1 [17] = assay: Induction of cell cycle arrest in human PANC-1 cells assessed as accumulation at G2 phase at 0.5 uM incubated for 24 hrs by PI staining based flow cytometry (reference value: 9.36 %); type: functional
PANC-1 [18] = assay: Antitumor activity against human PANC-1 cells xenografted in BALB/c mouse at 20 mg/kg, ip for 4 weeks administered for 5 days consecutively and 2 days without treatment on every week in presence of OL relative to control; type: functional; settings: PANC-1, 672 h, read-out: TGI
PANC-1 [19] = assay: Induction of cell cycle arrest in human PANC-1 cells assessed as accumulation at G1 phase at 0.25 uM incubated for 24 hrs by PI staining based flow cytometry (reference value: 51.70 %); type: functional
[20] = Toxicity in BALB/c mouse xenografted with human PANC-1 cells assessed as animal mortality at 20 mg/kg, ip for 4 weeks administered for 5 days consecutively and 2 days without treatment on every week; type: organism-based; settings: in vivo, 672 h
PANC-1 [21] = assay: Induction of cell cycle arrest in human PANC-1 cells assessed as accumulation at G0/G1 phase at 1 uM incubated for 24 hrs in presence of OL by PI staining based flow cytometry relative to control; type: functional
PANC-1 [22] = assay: Induction of cell cycle arrest in human PANC-1 cells assessed as accumulation at G1 phase at 1 uM incubated for 24 hrs in presence of OL by PI staining based flow cytometry (reference value: 51.70 %); type: functional
PANC-1 [23] = assay: Induction of cell cycle arrest in human PANC-1 cells assessed as accumulation at G1 phase at 0.12 uM incubated for 24 hrs by PI staining based flow cytometry (reference value: 51.70 %); type: functional
[24] = Toxicity in BALB/c mouse xenografted with human PANC-1 cells assessed as pathological changes in kidney at 20 mg/kg, ip for 4 weeks administered for 5 days consecutively and 2 days without treatment on every week by H and E staining based analysis; type: organism-based; settings: in vivo, 672 h
[25] = Toxicity in BALB/c mouse xenografted with human PANC-1 cells assessed as drug tolerance at 20 mg/kg, ip for 4 weeks administered for 5 days consecutively and 2 days without treatment on every week; type: organism-based; settings: in vivo, 672 h
PANC-1 [26] = assay: Induction of apoptosis in human PANC-1 cells assessed as late apoptotic cells at 0.12 uM incubated for 48 hrs by Annexin V-FITC/PI staining based flow cytometry (reference value: 3.87 %); type: functional
PANC-1 [27] = assay: Induction of apoptosis in human PANC-1 cells assessed as early apoptotic cells at 0.25 uM incubated for 48 hrs by Annexin V-FITC/PI staining based flow cytometry (reference value: 1.41 %); type: functional
PANC-1 [28] = assay: Induction of apoptosis in human PANC-1 cells assessed as early apoptotic cells at 1 uM incubated for 48 hrs in presence of OL by Annexin V-FITC/PI staining based flow cytometry (reference value: 1.41 %); type: functional
PANC-1 [29] = assay: Induction of apoptosis in human PANC-1 cells assessed as early apoptotic cells at 1 uM incubated for 48 hrs by Annexin V-FITC/PI staining based flow cytometry (reference value: 1.41 %); type: functional
PANC-1 [30] = assay: Induction of cell cycle arrest in human PANC-1 cells assessed as accumulation at G2/M phase at 2 uM incubated for 24 hrs in presence of JQ1 by PI staining based flow cytometry; type: functional
PANC-1 [31] = assay: Induction of apoptosis in human PANC-1 cells at 2 uM incubated for 48 hrs in presence of JQ1 by Annexin V-FITC/PI staining based flow cytometry relative to control; type: functional
BXPC-3 = assay: Synergistic antiproliferative activity against human BXPC-3 cells expressing wild-type BRCA assessed as combination index at 2:1 ratio of compound:JQ1 incubated for 5 days by CCK8 assay; type: functional; settings: time 5 day

O=C1CCC(N2C(=O)c3cccc(NC(=O)CNCCCCCCCCCCC(=O)N4CCN(C(=O)c5cc(Cc6n[nH]c(=O)c7ccccc67)ccc5F)CC4)c3C2=O)C(=O)N1 (configuration not stated)
Activity (PANC-1 [1]): 12.4%
Activity (PANC-1 [2]): 20.5%
Activity (PANC-1 [3]): 84.4%
Activity (PANC-1 [4]): Active
Activity (PANC-1 [5]): 8.3%
Activity (PANC-1 [6]): Active
inhibition (PANC-1 [7]): Active
Activity (PANC-1 [8]): Active
Activity (PANC-1 [9]): ~11%

Cc1sc2c(c1C)C(c1ccc(Cl)cc1)=N[C@@H](CC(=O)OC(C)(C)C)c1nnc(C)n1-2
Activity [10]: Non-toxic
Activity [11]: Non-toxic
Activity (PANC-1 [12]): 53.78%
inhibition (PANC-1 [13]): Active
inhibition (PANC-1 [14]): Active
Activity (PANC-1 [15]): Active
Activity (PANC-1 [16]): 38.89%
Activity (PANC-1 [17]): 10.56%
inhibition in vivo at 20 mg/kg (PANC-1 [18]): 80.7%
Activity (PANC-1 [19]): 48.96%
Activity [20]: Non-toxic
Activity (PANC-1 [21]): 12.43%
Activity (PANC-1 [22]): 58.42%
Activity (PANC-1 [23]): 46.24%
Activity [24]: Non-toxic
Activity [25]: Non-toxic
Activity (PANC-1 [26]): 3.99%
Activity (PANC-1 [27]): 4.08%
Activity (PANC-1 [28]): 5.44%
Activity (PANC-1 [29]): 6.72%

O=C(c1cc(Cc2n[nH]c(=O)c3ccccc23)ccc1F)N1CCN(C(=O)C2CC2)CC1 [OLAPARIB]
Activity (PANC-1 [30]): Active; Only A Slight Increase Observed
Activity (PANC-1 [31]): 26.9%
CI (BXPC-3): <1
